For assay [1], the target named is T1, Notum (Homo sapiens, UniProt Q6P988, C330S).
T1 construct: comprising amino acids S81–T451 with a C330S mutation; inferred from HisTrap purification and imidazole elution; made in house
T1 sequence (Q6P988 81-451 C330S): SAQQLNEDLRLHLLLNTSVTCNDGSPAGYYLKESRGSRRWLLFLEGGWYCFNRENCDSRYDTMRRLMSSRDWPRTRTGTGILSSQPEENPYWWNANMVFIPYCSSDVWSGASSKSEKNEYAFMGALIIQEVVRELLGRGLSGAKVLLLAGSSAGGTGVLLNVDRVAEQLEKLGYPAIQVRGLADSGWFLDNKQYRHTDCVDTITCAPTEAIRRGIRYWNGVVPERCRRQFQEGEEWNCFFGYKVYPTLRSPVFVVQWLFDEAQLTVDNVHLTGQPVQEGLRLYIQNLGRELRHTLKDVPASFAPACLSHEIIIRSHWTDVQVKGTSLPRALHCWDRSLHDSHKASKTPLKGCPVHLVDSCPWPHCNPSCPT
Kind of assay: Notum OPTS activity assay (cell-free biochemical). From the text:
Notum is a druggable target for Wnt signaling modulation.[23] We have previously determined a number of structures of Notum inhibitor complexes.[21],[22],[24],[25],[27],[28] All of these inhibitors bind noncovalently at the Notum enzyme catalytic pocket, where the natural substrate PAM binds. For searching covalent inhibitors, we used this noncovalent inhibitor binding information to limit compound docking into the enzyme active site. A virtual library of approximately 1.5 million compounds (ChemDiv) was filtered to generate 534,804 candidates for docking with a Notum structure (PDB code 6T2K) by Schrödinger Glide SP[37],[38] (Experimental Section). Resulting 1330 compounds with score −9 or better were subject to manual inspection and availability check. Finally, 952 compounds were purchased and experimentally screened using a cell-free trisodium 8-octanoyloxypyrene-1,3,6-trisulfonate (OPTS) biochemical assay.[22] […] The soaked crystals were harvested, and diffraction data were collected at the Diamond Light Source. The structures were determined by molecular replacement and refined with Refmac to screen for difference map peaks (Experimental Section). Chemical structures were then fitted into the difference maps with the aim of identifying covalent binders. Methyl 4-indolinyl-4-oxobutanoate (1) was identified as the only covalent binder to emerge from the screen (Figure 1). The 1 soaked crystal diffracted to 1.2 Å resolution with a P2_12_12_1 space group containing one enzyme-inhibitor complex in an asymmetric unit (for data collection and refinement statistics, see Supporting Information, Table S1). The overall structure maintained the characteristic apo Notum fold (Figure 1A), with a α/β hydrolase core domain (β1-8 strands and αB, C, and F helices) and a moveable lid domain (αA, D, and E helices). 1 is composed of an indole ring linked to an oxo-butyric acid methyl ester (Figure 1B). The methyl ester-hydrolyzed 1 (with PDB identifier RW8) is an excellent fit in the strong electron density that extends from the nucleophile residue S232 (Figure 1C). The electron density for the RW8 is of equally high quality to that of the surrounding Notum amino acids. […] The movable lid domain sits between the “open” (PDB code 4UYU) and “closed” (PDB code 4UZ1) conformations with obvious movements of the flexible β6_αD loop (Figure 1D). When superimposed with the natural substrate, PAM-bound, structure (PDB code 4UZQ), the RW8 overlaps with the PAM within the enzyme pocket (Figure 1E). The indole ring is located toward the bottom of the pocket, while the butyric acid head group is well-aligned with the PAM head (Figure 1E). Residues that form the base of the pocket (P287–I291) are positioned closer to the RW8 indole ring than in the PAM-bound structure. For example, P287 Cα has moved 1.7 Å toward the pocket center (Figure 1E) to optimize interactions with the RW8 indole ring, which extends less far into the pocket than PAM.
The Notum inhibitory potencies of these compounds were assessed by determining OPTS IC50 values, which can be used to compare the relative activities of covalent inhibitors under carefully regulated conditions.[43] […] When a phenyl ring is added to produce benzyl ester, 5, the IC50 is also slightly better than 1.
The OPTS activity assay has been described in previous reports.[24],[25] Briefly, the test compounds, the reporter substrate OPTS (Sigma), and the recombinant Notum protein were dispensed into 384-well plates (Greiner) using a Labcyte Echo 550 acoustic liquid handler and incubated 40 min in room temperature. The endpoint fluorescence was measured on a PheraSTAR FSX microplate reader with an excitation wavelength of 485 nm and an emission wavelength of 520 nm. The compound IC50 values were calculated from curves using a 4PL fit.

The target in assay [2] is T1, Notum. Kind of assay: Cell-based TCF/LEF reporter (luciferase) assay, HEK293 STF cells with exogenous Wnt3a and Notum. The settings on record: HEK293 TCF/LEF luciferase reporter cell line. As for the experimental part: Selected compounds were further investigated for inhibition of Notum activity in a Wnt/β-catenin signaling pathway TCF/LEF reporter (luciferase) HEK293 cell line with exogenous Wnt3a and Notum.[22],[25]
The cellular Wnt signaling functional assay has been described in previous reports.[24],[25] Briefly, the reporter cell plate containing stable HEK293 STF cells[53] (1 × 10^4 cells per well in 384-well microplates) carrying the Super Top Flash firefly luciferase reporter was prepared (overnight at 37 °C). Compounds and Notum protein were mixed for 10 min before the recombinant Wnt-3A was added and incubated for 1 h at room temperature. Then, the mixture from the compound plates was added to reporter cell plates and incubation overnight at 37 °C. For luciferase assay, steady-glo luciferase assay buffer (20 μL, Promega) was applied to the cell plates using the CyBio, the luminescence was measured on a PHERAstar FSXmicroplate reader with an excitation wavelength of 458 nm and an emission wavelength of 520 nm.

Another assay deals with T2, Notum (glycosylated) (Homo sapiens, UniProt Q6P988, C330S).
T2 construct: comprising amino acids S81–T451 with a C330S mutation; inferred from HisTrap purification and imidazole elution; made in house
T2 sequence (Q6P988 81-451 C330S): T1 sequence (Q6P988 81-451 C330S)
Kind of assay: Thermal shift assay (differential scanning fluorimetry). The format is binding. Particulars: for ΔTm at 1000 µM: compound 1 mM, read-out: max ΔTm; for ΔTm: compound ∼30 μM (31 μM in Figure 3). The procedure:
To further characterize Notum 1 binding, especially regarding the importance of the methyl ester warhead of 1, we used a thermal shift assay (also known as differential scanning fluorimetry) to compare the binding properties of 1 with its methyl-less acid form, 4-indolinyl-4-oxobutanoic acid (2). The thermal shift assay is a reliable label-free strategy to detect small molecule–protein binding by measuring protein melting temperature (Tm) changes.[39]−[41] A ΔTm of 2 °C or more indicates a small molecule binding to the target protein.[42] Notum was incubated with each compound in the presence of a fluorescent indicator, […], and the melting curves were recorded. 1 and 2, despite only differing by a single methyl group, yield highly different Notum melting curves (Figure 3). […] To establish the dose-dependent thermal shift responses, we performed a twofold serial dilution of the compounds.
Thermal shift assays were carried out in a semiskirted 96-well PCR plate (4-Titude). Each well contains 3 μg of glycosylated Notum protein, 3× SYPRO Orange dye (Thermo Fisher Scientific), and compounds at various concentrations and adjusted to a final volume of 50 μL with assay buffer (10 mM Hepes, pH7.4, 150 mM NaCl, and 2% DMSO). The samples were heated in an Mx3005p qPCR machine (Stratagene, Agilent Technologies) from room temperature at a rate of 1 °C/min for 74 cycles. Fluorescence changes were monitored with excitation and emission wavelengths at 492 and 610 nm, respectively.

A further assay concerns the target T3, Notum (deglycosylated) (Homo sapiens, UniProt Q6P988, C330S).
T3 construct: comprising amino acids S81–T451 with a C330S mutation; inferred from HisTrap purification and imidazole elution; made in house
T3 sequence (Q6P988 81-451 C330S): T1 sequence (Q6P988 81-451 C330S)
Kind of assay: ESI-QTOF intact protein mass spectrometry detection of covalent binding. The settings on record: 10 mM Hepes pH 7.4, 150 mM NaCl, room temperature, 1 h. The procedure: (§1) However, the crystals were grown and soaked under low pH (pH 4.2) and high salt (1.5 M ammonium sulphate) conditions. To measure covalent bonding and stability under near physiological conditions, we incubated Notum (deglycosylated) protein with 1 in buffer containing 10 mM Hepes, pH 7.4, 150 mM NaCl at room temperature for 1 h. The mixture was then subjected to ultrahigh-performance liquid chromatography (uHPLC) reversed-phase chromatography separation, followed by electrospray ionization quadrupole time-of-flight (ESI-QTOF) mass spectrometry analysis. […] There are some other minor peaks that may reflect incomplete removal of glycans. […] The calculated MW of 1 is 233.27 Da, while its methyl ester-hydrolyzed form (RW8) is 201.22 Da. […] To establish whether the covalent link is dependent on the nucleophile serine residue, we further used the Notum S232A mutant as a control, observing a mass of 44103.32 Da (Figure 2C). The decrease of 15.79 Da compared to the wild type is consistent with the expected serine to alanine mutation.
(§2) Reversed-phase chromatography was performed in-line prior to mass spectrometry using an Agilent 1290 uHPLC system (Agilent Technologies inc. USA). […] Protein intact mass was determined using a 6530 ESI-QTOF mass spectrometer (Agilent Technologies Inc. USA). […]

The next assay has as its target T4, Notum S232A mutant (Homo sapiens, UniProt Q6P988, C330S/S232A).
T4 construct: comprising amino acids S81–T451 with a C330S mutation; inferred from HisTrap purification and imidazole elution; made in house
T4 sequence (Q6P988 81-451 S232A/C330S): T1 sequence (Q6P988 81-451 C330S) with S152A
Kind of assay: ESI-QTOF intact protein mass spectrometry detection of covalent binding, mutant control. The settings on record: 10 mM Hepes pH 7.4, 150 mM NaCl, room temperature, 1 h. As for the experimental part: as §1, §2

Where [3] appears, read: mean ± s.d. (n = 4), 40 min incubation at room temperature.

Each structure is given as a SMILES string. Residue numbers refer to the chain shown, from its start.

`CC(C)OC(=O)CCC(=O)N1CCc2ccccc21` [Compound 6] showed a half-inhibitory concentration (IC50) against Notum [1] (setting [3]) of 4300 ± 400 nM.
Still for that read-out and setting: for `O=C(CCC(=O)N1CCc2ccccc21)OCC(F)F` [Compound 4] the value was 12 ± 2.8 nM; for `O=C(CCC(=O)N1CCc2ccccc21)OCc1ccccc1` [Compound 5], 64 ± 14 nM.
For the compound `CCOC(=O)CCC(=O)N1CCc2ccccc21` [Compound 3], the response at Notum [2] was half-maximal at 300 ± 60 nM (EC50). This compound registered an IC50 against Notum [1] (setting [3]) of 190 ± 45 nM.
Regarding `CC(C)(C)OC(=O)CCC(=O)N1CCc2ccccc21` [Compound 7], the inhibition at 10 µM on Notum [1] (@ 10 μM, read-out: Notum OPTS % inhibition (% I)) is less than 10%. Besides, the “Notum OPTS IC50” value on Notum [1] (setting [3]) was “inactive ^b”.
Consider `O=C(O)CCC(=O)N1CCc2ccccc21` [Compound 2, 4-indolinyl-4-oxobutanoic acid], for which, on Notum (glycosylated), the ΔTm at 1000 µM came out at 2.5 °C and the thermal shift (ΔTm) is 1 °C. The compound further showed an IC50 against Notum [1] (setting [3]) of 3100 ± 920 nM.
As to `COC(=O)CCC(=O)N1CCc2ccccc21` [Compound 1, Methyl 4-indolinyl-4-oxobutanoate], the ΔTm at 8 µM on Notum (glycosylated) (compound 8 μM, start of significant changes) is 2 °C. Further, on Notum (glycosylated), the thermal shift (ΔTm) at 1000 µM is 10 °C and the ΔTm was found to be 5 °C. In addition, on Notum (deglycosylated), the “mass increase of treated Notum compared to untreated Notum” value was found to be 201.25 Da. The compound further registered an EC50 at Notum [2] of 530 ± 47 nM. In addition, at Notum S232A mutant, the “mass change of treated Notum S232A mutant” value is given as “no mass change”. On Notum [1] (setting [3]), this compound registered an IC50 of 93 ± 20 nM.

Source of the values: paper PMC8365597, “Structural Insights into Notum Covalent Inhibition” (Journal of Medicinal Chemistry, 2021).
